According to patent US20200339651A1, “METHODS FOR B CELL PRECONDITIONING IN CAR THERAPY” (Novartis AG, priority 2014, published 2020):

Key:
huCART19 cells = experiment: CART proliferation in 4 day co-culture with Nalm-6 cells in the presence of RAD001; assay type: cell-based, human
Description: A humanized, anti-human CD19 CAR (huCART19) lentiviral transfer vector was used to produce the genomic material packaged into VSVg pseudotyped lentiviral particles. The amino acid and nucleotide sequence of the humanized anti-human CD19 CAR (huCART19) is CAR 1, ID 104875 described in PCT publication, WO2014/153270, filed Mar. 15, 2014, and is designated SEQ ID NOs. 85 and 31 therein.
Lentiviral transfer vector DNA is mixed with the three packaging components VSVg env, gag/pol and rev in combination with lipofectamine reagent to transfect Lenti-X 293T cells. Medium is changed after 24 h and 30 h thereafter, the virus-containing media is collected, filtered and stored at −80° C. CARTs are generated by transduction of fresh or frozen naïve T cells obtained by negative magnetic selection of healthy donor blood or leukopak. T cells are activated by incubation with anti-CD3/anti-CD28 beads for 24 h, after which viral supernatant or concentrated virus (MOI=2 or 10, respectively) is added to the cultures. The modified T cells are allowed to expand for about 10 days. The percentage of cells transduced (expressing the CARs on the cell surface) and the level of CAR expression (relative fluorescence intensity, Geo Mean) are determined by flow cytometric analysis between days 7 and 9. The combination of slowing growth rate and T cell size approaching ˜350 fL determines the state for T cells to be cryopreserved for later analysis.
To evaluate the functionality of CARTs, the T cells are thawed and counted, and viability is assessed by Cellometer. The number of CAR-positive cells in each culture is normalized using non-transduced T cells (UTD). The impact of RAD001 on CARTs was tested in titrations with RAD001, starting at 50 nM. The target cell line used in all co-culture experiments is Nalm-6, a human pre-B cell acute lymphoblastic leukemia (ALL) cell line expressing CD19 and transduced to express luciferase.
For measuring the proliferation of CARTs, T cells are cultured with target cells at a ratio of 1:1. […] The number of T cells is assessed by flow cytometry using counting beads as reference.

huCAR19 CAR T cells = experiment: In vivo proliferation of humanized CD19 CART cells with and without RAD001 dosing; set-up: species or system NSG mice
Protocol: Circles denote PBS; squares denote huCTL019; triangles denote huCTL019 with 3 mg/kg RAD001; inverted triangles denote huCTL019 with 0.3 mg/kg RAD001; diamonds denote huCTL019 with 0.03 mg/kg RAD001; and circles denote huCTL019 with 0.003 mg/kg RAD001.
Mice were administered 5×10^6 CAR T cells 7 days after tumor implantation. Cells were partially thawed in a 37 degree Celsius water bath and then completely thawed by the addition of 1 ml of cold sterile PBS to the tube containing the cells. The thawed cells were transferred to a 15 ml falcon tube and adjusted to a final volume of 10 mls with PBS. The cells were washed twice at 1000 rpm for 10 minutes each time and then counted on a hemocytometer. T cells were then resuspended at a concentration of 50×10^6 CAR T cells per ml of cold PBS and kept on ice until the mice were dosed. The mice were injected intravenously via the tail vein with 100 μl of the CAR T cells for a dose of 5×10^6 CAR T cells per mouse. Eight mice per group were treated either with 100 μl of PBS alone (PBS), or humanized CD19 CAR T cells.
(§1) A concentrated micro-emulsion of 50 mg equal to 1 mg RAD001 was formulated and then resuspended in D5W (dextrose 5% in water) at the time of dosing. Mice were orally dosed daily (via oral gavage) with 200 μl of the desired doses of RAD001.
Based on these doses, huCAR19 CAR T cells were dosed with and without RAD001 to determine the proliferative ability of these cells. The highest dose used was 3 mg/kg based on the levels of RAD001 in the blood 24 hours after dosing. As the concentration of RAD001 was above 10 nM 24 hours after the final dose of RAD001, several lower doses of RAD001 were used in the in vivo study with CAR T cells. The CAR T cells were dosed IV one day prior to the start of the daily oral RAD001 dosing. Mice were monitored via FACS for T cell expansion.

[1] = Pharmacokinetics of RAD001 in the blood of NSG mice with NALM6 tumors; assay type: in vivo
Protocol: Diamonds denote the […] dose of RAD001; squares denote the 1 mg/kg dose of RAD001; triangles denote the 3 mg/kg dose of RAD001; and x's denote the 10 mg/kg dose of RAD001.
as §1
Mice were dosed daily with RAD001 starting 7 days post tumor implantation. Dosing groups were as follows: 0.3 mg/kg, 1 mg/kg, 3 mg/kg, and 10 mg/kg. Mice were bled on days 0 and 14 following the first and last dose of RAD001, at the following time points for PK analysis: 15 minutes, 30 minutes, 1 hour, 2 hours, 4 hours, 8 hours, 12 hours, and 24 hours.

NALM6-luc tumors = experiment: NALM6-luc tumor growth in NSG mice with daily RAD001 dosing; assay type: in vivo; settings: daily oral dosing of RAD001 alone at 0.3, 1, 3, and 10 mg/kg
Protocol: FIG. 8 depicts tumor growth measurements of NALM6-luc cells with daily RAD001 dosing at 0.3, 1, 3, and 10 mg/kg (mpk) or vehicle dosing. Circles denote the vehicle; squares denote the 10 mg/kg dose of RAD001; triangles denote the 3 mg/kg dose of RAD001, inverted triangles denote the 1 mg/kg dose of RAD001; and diamonds denote the 0.3 mg/kg dose of RAD001.
The NALM6 human acute lymphoblastic leukemia (ALL) cell line was developed from the peripheral blood of a patient with relapsed ALL. The cells were then tagged with firefly luciferase. These suspension cells grow in RPMI supplemented with 10% heat inactivated fetal bovine serum.
6 week old NSG (NOD.Cg-Prkdc^scidIl2rg^tm1Wjl/SzJ) mice were received from the Jackson Laboratory (stock number 005557).
NALM6-luc cells were grown and expanded in vitro in RPMI supplemented with 10% heat inactivated fetal bovine serum. The cells were then transferred to a 15 ml conical tube and washed twice with cold sterile PBS. NALM6-luc cells were then counted and resuspended at a concentration of 10×10^6 cells per milliliter of PBS. The cells were placed on ice and immediately (within one hour) implanted in the mice. NALM6-luc cells were injected intravenously via the tail vein in a 100 μl volume, for a total of 1×10^6 cells per mouse. […]

concentration of RAD001 ([1]; 24 hours after the final dose of RAD001): above 10 nM
concentration at 24 h ([1]; NSG, mouse, whole blood, day 0, 24 hours after dosing, lowest dose tested (0.3 mg/kg), oral): > 10 nM
RAD001 concentration in the blood ([1]; day 14, 24 hours after dosing, lowest dose tested (0.3 mg/kg), oral): above 10 nm
stability in the blood ([1]; tumor bearing mice): fairly stable
SMILES: CO[C@H]1C[C@@H]2CC[C@@H](C)[C@@](O)(O2)C(=O)C(=O)N2CCCC[C@H]2C(=O)O[C@H]([C@H](C)C[C@@H]2CC[C@@H](OCCO)[C@H](OC)C2)CC(=O)[C@H](C)/C=C(\C)[C@@H](O)[C@@H](OC)C(=O)[C@H](C)C[C@H](C)/C=C/C=C/C=C/1C [RAD001, (1R,9S,12S,15R,16E,18R,19R,21R,23S,24E,26E,28E,30S,32S,35R)-1,18-dihydroxy-12-{(1R)-2-[(1S,3R,4R)-4-(2-hydroxyethoxy)-3-methoxycyclohexyl]-1-methylethyl}-19,30-dimethoxy-15,17,21,23,29,35-hexamethyl-11,36-dioxa-4-aza-tricyclo[30.3.1.04,9]hexatriaconta-16,24,26,28-tetraene-2,3,10,14,20-pentaone]
proliferation of huCART19 cells compared with no RAD001 (huCART19 cells; 0.0032 and 0.016 nM RAD001, 4 day co-culture with Nalm-6): proliferation was higher than observed without the addition of RAD001
expansion of huCART19 cells (huCART19 cells; less than 0.016 nM of RAD001, 4 day co-culture with Nalm-6, 1:1): expanded
proliferation of CAR-expressing, transduced T cells (huCART19 cells; low doses of RAD001, cell culture system): enhanced
CAR T cell proliferation in vivo (huCAR19 CAR T cells; RAD001 0.003 mg/kg daily, huCTL019): enhancement in CAR T cell proliferation, above the normal level of huCAR19 proliferation
enhanced proliferation of CD4+ CAR T cells compared with CD8+ CAR T cells (huCAR19 CAR T cells; lowest doses of RAD001): more evident and prolonged
proliferation of CD8+ CAR T cells (huCAR19 CAR T cells; lowest doses of RAD001): enhanced proliferation can be seen at early time points
proliferation of the CAR T cells in vivo (huCAR19 CAR T cells; lowest doses of RAD001, daily oral): enhanced proliferation
growth of NALM6-luc tumors (NALM6-luc tumors): did not have an impact
